From PubChem BioAssay (NCI)
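How tested: cells in 96-well plates exposed to compound for 48 hours at five concentrations. TGI: concentration producing complete growth inhibition.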

Assays:
Assay in all cases: NCI-60 cell line screen, 48 h
SF-539 CNS = tested on: SF-539 CNS
OVCAR-3 ovarian = tested on: OVCAR-3 ovarian
A498 renal = tested on: A498 renal
XF 498 CNS = tested on: XF 498 CNS
MOLT-4 leukemia = tested on: MOLT-4 leukemia
HOP-62 NSCLC = tested on: HOP-62 NSCLC
HCC-2998 colon = tested on: HCC-2998 colon
CCRF-CEM leukemia = tested on: CCRF-CEM leukemia
HL-60(TB) leukemia = tested on: HL-60(TB) leukemia
SN12C renal = tested on: SN12C renal
SNB-75 CNS = tested on: SNB-75 CNS
OVCAR-8 ovarian = tested on: OVCAR-8 ovarian
SNB-19 CNS = tested on: SNB-19 CNS
RPMI-8226 leukemia = tested on: RPMI-8226 leukemia
HCT-15 colon = tested on: HCT-15 colon
UO-31 renal = tested on: UO-31 renal
LOX IMVI melanoma = tested on: LOX IMVI melanoma
SK-OV-3 ovarian = tested on: SK-OV-3 ovarian
TK-10 renal = tested on: TK-10 renal
KM20L2 colon = tested on: KM20L2 colon
DMS 114 small cell lung = tested on: DMS 114 small cell lung
LXFL 529 NSCLC = tested on: LXFL 529 NSCLC
SK-MEL-5 melanoma = tested on: SK-MEL-5 melanoma
OVCAR-5 ovarian = tested on: OVCAR-5 ovarian
SF-295 CNS = tested on: SF-295 CNS
DLD-1 colon = tested on: DLD-1 colon
SR leukemia = tested on: SR leukemia
786-0 renal = tested on: 786-0 renal
OVCAR-4 ovarian = tested on: OVCAR-4 ovarian
KM12 colon = tested on: KM12 colon
HT29 colon = tested on: HT29 colon
HOP-18 NSCLC = tested on: HOP-18 NSCLC
UACC-62 melanoma = tested on: UACC-62 melanoma
ACHN renal = tested on: ACHN renal
M14 melanoma = tested on: M14 melanoma
DMS 273 small cell lung = tested on: DMS 273 small cell lung
SK-MEL-28 melanoma = tested on: SK-MEL-28 melanoma
A549 NSCLC = tested on: A549 NSCLC
SNB-78 CNS = tested on: SNB-78 CNS
M19-MEL melanoma = tested on: M19-MEL melanoma
NCI-H23 lung = tested on: NCI-H23 lung
HOP-92 NSCLC = tested on: HOP-92 NSCLC
SF-268 CNS = tested on: SF-268 CNS
IGROV1 ovarian = tested on: IGROV1 ovarian
EKVX NSCLC = tested on: EKVX NSCLC
SW-620 colon = tested on: SW-620 colon
NCI-H522 lung = tested on: NCI-H522 lung
HCT-116 colon = tested on: HCT-116 colon
U251 CNS = tested on: U251 CNS
CAKI-1 renal = tested on: CAKI-1 renal
NCI-H460 lung = tested on: NCI-H460 lung
K-562 leukemia = tested on: K-562 leukemia
UACC-257 melanoma = tested on: UACC-257 melanoma
NCI-H226 lung = tested on: NCI-H226 lung
SK-MEL-2 melanoma = tested on: SK-MEL-2 melanoma
RXF 393 renal = tested on: RXF 393 renal
MALME-3M melanoma = tested on: MALME-3M melanoma
COLO 205 colon = tested on: COLO 205 colon

## CCN(CC)CCN1CCc2c([nH]c3ccccc23)C1c1cccnc1 (stereo not given)
SF-539 CNS
  TGI: > 100 µM
OVCAR-3 ovarian
  TGI: > 100 µM
A498 renal
  TGI: > 100 µM
XF 498 CNS
  TGI: > 100 µM
MOLT-4 leukemia
  TGI: > 100 µM
HOP-62 NSCLC
  TGI: > 100 µM
HCC-2998 colon
  TGI: > 100 µM
CCRF-CEM leukemia
  TGI: > 100 µM
HL-60(TB) leukemia
  TGI: > 100 µM
SN12C renal
  TGI: > 100 µM
SNB-75 CNS
  TGI: > 100 µM
OVCAR-8 ovarian
  TGI: > 100 µM
SNB-19 CNS
  TGI: > 100 µM
RPMI-8226 leukemia
  TGI: > 100 µM
HCT-15 colon
  TGI: > 100 µM
UO-31 renal
  TGI: > 100 µM
LOX IMVI melanoma
  TGI: > 100 µM
SK-OV-3 ovarian
  TGI: > 100 µM
TK-10 renal
  TGI: > 100 µM
KM20L2 colon
  TGI: > 100 µM
DMS 114 small cell lung
  TGI: > 100 µM
LXFL 529 NSCLC
  TGI: > 100 µM
SK-MEL-5 melanoma
  TGI: > 100 µM
OVCAR-5 ovarian
  TGI: > 100 µM
SF-295 CNS
  TGI: > 100 µM
DLD-1 colon
  TGI: > 100 µM
SR leukemia
  TGI: > 100 µM
786-0 renal
  TGI: > 100 µM
OVCAR-4 ovarian
  TGI: > 100 µM
KM12 colon
  TGI: > 100 µM
HT29 colon
  TGI: > 100 µM
HOP-18 NSCLC
  TGI: > 100 µM
UACC-62 melanoma
  TGI: > 100 µM
ACHN renal
  TGI: > 100 µM
M14 melanoma
  TGI: > 100 µM
DMS 273 small cell lung
  TGI: > 100 µM
SK-MEL-28 melanoma
  TGI: > 100 µM
A549 NSCLC
  TGI: > 100 µM
SNB-78 CNS
  TGI: > 100 µM
M19-MEL melanoma
  TGI: > 100 µM
NCI-H23 lung
  TGI: > 100 µM
HOP-92 NSCLC
  TGI: > 100 µM
SF-268 CNS
  TGI: > 100 µM
IGROV1 ovarian
  TGI: > 100 µM
EKVX NSCLC
  TGI: > 100 µM
SW-620 colon
  TGI: > 100 µM
NCI-H522 lung
  TGI: > 100 µM
HCT-116 colon
  TGI: > 100 µM
U251 CNS
  TGI: > 100 µM
CAKI-1 renal
  TGI: > 100 µM
NCI-H460 lung
  TGI: > 100 µM
K-562 leukemia
  TGI: > 100 µM
UACC-257 melanoma
  TGI: > 100 µM

## CCCCCCCCCCCCCC(=S)N/C=C/OC
SF-539 CNS
  TGI: > 100 µM
OVCAR-3 ovarian
  TGI: 56.1 µM
A498 renal
  TGI: 86.2 µM
XF 498 CNS
  TGI: 51.9 µM
HOP-62 NSCLC
  TGI: > 100 µM
HCC-2998 colon
  TGI: 45.9 µM
CCRF-CEM leukemia
  TGI: 56.2 µM
HL-60(TB) leukemia
  TGI: 36.8 µM
SN12C renal
  TGI: > 100 µM
SNB-75 CNS
  TGI: > 100 µM
OVCAR-8 ovarian
  TGI: > 100 µM
SNB-19 CNS
  TGI: > 100 µM
RPMI-8226 leukemia
  TGI: 51.5 µM
HCT-15 colon
  TGI: 53.3 µM
UO-31 renal
  TGI: 95.6 µM
NCI-H226 lung
  TGI: > 100 µM
LOX IMVI melanoma
  TGI: 46.8 µM
SK-OV-3 ovarian
  TGI: > 100 µM
TK-10 renal
  TGI: > 100 µM
KM20L2 colon
  TGI: > 100 µM
DMS 114 small cell lung
  TGI: 48.3 µM
LXFL 529 NSCLC
  TGI: > 100 µM
SK-MEL-5 melanoma
  TGI: 61.7 µM
OVCAR-5 ovarian
  TGI: > 100 µM
SK-MEL-2 melanoma
  TGI: 73 µM
SF-295 CNS
  TGI: 85.4 µM
DLD-1 colon
  TGI: > 100 µM
RXF 393 renal
  TGI: 54.8 µM
786-0 renal
  TGI: > 100 µM
OVCAR-4 ovarian
  TGI: > 100 µM
KM12 colon
  TGI: 81.9 µM
HT29 colon
  TGI: 50.1 µM
HOP-18 NSCLC
  TGI: > 100 µM
UACC-62 melanoma
  TGI: 71.3 µM
ACHN renal
  TGI: 96.4 µM
M14 melanoma
  TGI: > 100 µM
SK-MEL-28 melanoma
  TGI: > 100 µM
A549 NSCLC
  TGI: > 100 µM
SNB-78 CNS
  TGI: > 100 µM
M19-MEL melanoma
  TGI: 99.6 µM
NCI-H23 lung
  TGI: 74 µM
MALME-3M melanoma
  TGI: > 100 µM
HOP-92 NSCLC
  TGI: 74.5 µM
SF-268 CNS
  TGI: > 100 µM
IGROV1 ovarian
  TGI: > 100 µM
EKVX NSCLC
  TGI: 81.7 µM
SW-620 colon
  TGI: > 100 µM
NCI-H522 lung
  TGI: 46.3 µM
COLO 205 colon
  TGI: 71.4 µM
HCT-116 colon
  TGI: > 100 µM
U251 CNS
  TGI: 53.1 µM
NCI-H460 lung
  TGI: > 100 µM
UACC-257 melanoma
  TGI: 57 µM

## COC(=O)CC(=O)OC
SF-539 CNS
  TGI: > 100 µM
OVCAR-3 ovarian
  TGI: > 100 µM
A498 renal
  TGI: > 100 µM
XF 498 CNS
  TGI: > 100 µM
MOLT-4 leukemia
  TGI: > 100 µM
HOP-62 NSCLC
  TGI: > 100 µM
HCC-2998 colon
  TGI: > 100 µM
CCRF-CEM leukemia
  TGI: > 100 µM
HL-60(TB) leukemia
  TGI: > 100 µM
SN12C renal
  TGI: > 100 µM
SNB-75 CNS
  TGI: > 100 µM
OVCAR-8 ovarian
  TGI: > 100 µM
SNB-19 CNS
  TGI: > 100 µM
RPMI-8226 leukemia
  TGI: > 100 µM
HCT-15 colon
  TGI: > 100 µM
UO-31 renal
  TGI: > 100 µM
LOX IMVI melanoma
  TGI: > 100 µM
SK-OV-3 ovarian
  TGI: > 100 µM
TK-10 renal
  TGI: > 100 µM
KM20L2 colon
  TGI: > 100 µM
DMS 114 small cell lung
  TGI: > 100 µM
LXFL 529 NSCLC
  TGI: > 100 µM
SK-MEL-5 melanoma
  TGI: > 100 µM
OVCAR-5 ovarian
  TGI: > 100 µM
SK-MEL-2 melanoma
  TGI: > 100 µM
SF-295 CNS
  TGI: > 100 µM
DLD-1 colon
  TGI: > 100 µM
RXF 393 renal
  TGI: > 100 µM
786-0 renal
  TGI: > 100 µM
OVCAR-4 ovarian
  TGI: > 100 µM
KM12 colon
  TGI: > 100 µM
HT29 colon
  TGI: > 100 µM
HOP-18 NSCLC
  TGI: > 100 µM
UACC-62 melanoma
  TGI: > 100 µM
ACHN renal
  TGI: > 100 µM
M14 melanoma
  TGI: > 100 µM
DMS 273 small cell lung
  TGI: > 100 µM
A549 NSCLC
  TGI: > 100 µM
SNB-78 CNS
  TGI: > 100 µM
M19-MEL melanoma
  TGI: > 100 µM
NCI-H23 lung
  TGI: > 100 µM
MALME-3M melanoma
  TGI: > 100 µM
HOP-92 NSCLC
  TGI: > 100 µM
SF-268 CNS
  TGI: > 100 µM
IGROV1 ovarian
  TGI: > 100 µM
EKVX NSCLC
  TGI: > 100 µM
SW-620 colon
  TGI: > 100 µM
COLO 205 colon
  TGI: > 100 µM
HCT-116 colon
  TGI: > 100 µM
U251 CNS
  TGI: > 100 µM
CAKI-1 renal
  TGI: > 100 µM
NCI-H460 lung
  TGI: > 100 µM
K-562 leukemia
  TGI: > 100 µM
UACC-257 melanoma
  TGI: > 100 µM
